Consider 2 molecules from ChEMBL document CHEMBL1150278, “Thiocamptothecin” (J Med Chem, 2008).

Broadly, the pIC50 is −log10 of the IC50, conventionally taken in molar units. Read a high pIC50 as a low IC50.

Test [1] concerns IGROV-1. As to the kind of experiment: Cytotoxicity against human IGROV1 cells after 72 hrs. The conditions noted are these: IGROV-1, 72 h. Type of test: functional, cell-based.
The subject of test [2] is NCI-H460. As to the kind of experiment: Cytotoxicity against human H460 cells after 72 hrs. Type of test: functional, cell-based. The note with it: NCI-H460, 72 h.
Test [3] relates to HT-29. As to the kind of experiment: Cytotoxicity against human mitoxantrone-resistant HT29 cells after 1 hr. The conditions noted are these: HT-29, 1 h. It counts as functional, cell-based.
Test [4] concerns NCI-H460. Description: Cytotoxicity against human H460 cells after 1 hr. The note with it: NCI-H460, 1 h. It counts as functional, cell-based.
Test [5] has as its system IGROV-1. Description: Cytotoxicity against human IGROV1 cells after 1 hr. It counts as functional, cell-based. The note with it: IGROV-1, 1 h.
The species entered for the next test is Homo sapiens. Description: Stimulation of human recombinant topoisomerase 1B-mediated SV40 DNA cleavage.
The subject of test [6] is HT-29. Description: Cytotoxicity against human HT29 cells after 1 hr. It counts as functional, cell-based. The note with it: HT-29, 1 h.

pIC50: −log10 of the molar value. Active and inactive are the calls of the source. The rule behind the calls is not given here.

For the molecule `CC[C@@]1(O)C(=O)OCc2c1cc1n(c2=S)Cc2cc3ccccc3nc2-1`, the negative-log IC50 (pIC50) was 8.33 in the test on IGROV-1 [1]; 8.13 with NCI-H460 [2]; 6.96 in the test with HT-29 [3]; 6.85 with NCI-H460 [4]; 6.66 with IGROV-1 [5]; 6.77 in the test with HT-29 [6]. Further, the outcome in the test listed under Homo sapiens was Active.

`CC[C@@]1(O)C(=O)OCc2c1cc1n(c2=O)Cc2cc3ccccc3nc2-1` [CAMPTOTHECIN]: the pIC50 was 7.92 in the test with IGROV-1 [1], 8.21 in the test with NCI-H460 [2] and 5.78 in the test with IGROV-1 [5].
